Measured values taken from article PMC6200808 (2018).

Key:
[1] = tested on: NEO1A (RNA, aptamer) GGACUGGGCGAGAAGUUUAGUCC; assay: ITC; conditions: for Kd: buffer IC (approximates intracellular salt; composition not shown), buffer IC, 25 °C
[2] = tested on: TOB3A (RNA, aptamer) GGCACGAGGUUUAGCUACACUCGUGCC; conditions: column head extracted as (M), μ lost
[3] = tested on: 16S (16S rRNA Decoding region) (RNA, rRNA) GGCGUCACACCUUCGGGUGAAGUCGCC; conditions: column head extracted as (M), μ lost
[4] = tested on: NEO4A (RNA, aptamer) CUUUGCGAUGUCCUUUAAUGGUCCGCGAGG; assay: ITC; conditions: buffer IC (approximates intracellular salt; composition not shown), 25 °C
[5] = tested on: TSM (Thymidylate Synthase mRNA region) (RNA, mRNA element) CCCCCCCGCCGCGCCAUGCCUGUGGCCGGUCGG; conditions: column head extracted as (M), μ lost

| binding ([1]; 20 μM aptamer in cell, tetracycline concentration not stated) | Kd ([1]; N = 5) | Kd ([1]; N = 8) | Dissociation Constants [2] | Dissociation Constants [3] | Kd ([4]; N = 3) | Dissociation Constants [5] | Kd ([1]; N = 3) | Kd ([4]; N = 2) | Compound |
| --- | --- | --- | --- | --- | --- | --- | --- | --- | --- |
| no |  |  |  |  |  |  |  |  | CN(C)[C@@H]1C(=O)C(C(N)=O)=C(O)[C@@]2(O)C(=O)C3=C(O)c4c(O)cccc4[C@@](C)(O)[C@H]3C[C@@H]12 |
|  | 26 ± 9.3 µM |  |  |  |  |  |  |  | CN[C@@H]1[C@@H](O)[C@@H](O[C@@H]2[C@@H](O)[C@H](O[C@H]3O[C@H]([C@@H](C)O)[C@@H](O)[C@H](O)[C@H]3N)[C@@H](N)C[C@H]2N)OC[C@]1(C)O |
|  |  | 0.29 ± 0.054 µM | 2.2e-06 ± 5e-07 M | 1.93e-06 ± 5.8e-07 M | 0.099 ± 0.036 µM | 8.8e-07 ± 1.1e-07 M |  |  | NC[C@@H]1O[C@H](O[C@H]2[C@@H](O)[C@H](O[C@@H]3[C@@H](O)[C@H](N)C[C@H](N)[C@H]3O[C@H]3O[C@H](CN)[C@@H](O)[C@H](O)[C@H]3N)O[C@@H]2CO)[C@H](N)[C@@H](O)[C@@H]1O |
|  | 1.4 ± 0.19 µM |  | 1.72e-05 ± 1.96e-06 M | 5.31e-06 ± 1.85e-06 M |  | 6.29e-06 ± 3.49e-06 M |  |  | NC[C@@H]1O[C@H](O[C@H]2[C@@H](O)[C@H](O[C@@H]3[C@@H](O)[C@H](N)C[C@H](N)[C@H]3O[C@H]3O[C@H](CO)[C@@H](O)[C@H](O)[C@H]3N)O[C@@H]2CO)[C@H](N)[C@@H](O)[C@@H]1O |
|  |  |  | 2.4e-07 ± 1e-07 M | 1.03e-05 ± 3.87e-06 M |  | 5.75e-06 ± 1.87e-06 M | 4.8 ± 0.95 µM |  | NC[C@H]1O[C@H](O[C@H]2[C@H](O)[C@@H](O[C@H]3O[C@H](CO)[C@@H](O)[C@H](N)[C@H]3O)[C@H](N)C[C@@H]2N)[C@H](N)C[C@@H]1O |
|  | 0.75 ± 0.26 µM |  | 2.43e-06 ± 1.37e-06 M | 8.9e-06 ± 3.54e-06 M |  | 6.5e-06 ± 3.2e-06 M |  |  | NC[C@H]1O[C@H](O[C@H]2[C@H](O)[C@@H](O[C@H]3O[C@H](CO)[C@@H](O)[C@H](N)[C@H]3O)[C@H](N)C[C@@H]2N)[C@H](N)[C@@H](O)[C@@H]1O |
|  |  |  | 7.38e-05 ± 3.96e-06 M | 3.71e-05 ± 4.38e-06 M |  | 1.03e-05 ± 6.65e-06 M | 43 ± 3.6 µM | 10.7 ± 4.2 µM | NC[C@H]1O[C@H](O[C@H]2[C@H](O)[C@@H](O[C@H]3O[C@H](CO)[C@@H](O)[C@H](N)[C@H]3O)[C@H](N)C[C@@H]2N)[C@H](O)[C@@H](O)[C@@H]1O |
